According to patent US20080051382A1, “Crystalline Forms of 3-Beta-Amino 17-Methylene Androstane-6-Alpha 7-Beta-Diol Hydrochloride” (INFLAZYME PHARMACEUTICALS LTD., priority 2003, published 2008):
Structures can show the parent of a compound that is named as a salt.

Legend:
Format in all cases: physicochemical
[1] = Hygroscopicity of the solid form
[2] = Stability of the crystalline form versus relative humidity
[3] = Thermal stability of the crystalline form on heating

C=C1CC[C@H]2[C@@H]3[C@@H](O)[C@H](O)C4C[C@@H](N)CC[C@]4(C)[C@H]3CC[C@]12C (stereo partly drawn) [acetate salt, 3-beta-amino-17-methylene-androstane-6-alpha,7-beta-diol, reference compound]
hygroscopicity [1]: hygroscopic

C=C1CCC2C3C(CC[C@]12C)[C@@]1(C)CC[C@H](N)CC1[C@@H](O)[C@@H]3O.Cl (stereo partly drawn) [form A, 3-beta-amino-17-methylene-androstane-6-alpha,7-beta-diol hydrochloride]
form conversion under high relative humidity ([2]; left for 3 days under a relative humidity above 95%): converts to form B
temperature above which the form decomposes completely [3]: above 280 °C
temperature at which the form begins to deteriorate chemically [3]: around 240 °C
hygroscopicity [1]: absence of hygroscopicity

C=C1CCC2C3C(CC[C@]12C)[C@@]1(C)CC[C@H](N)CC1[C@@H](O)[C@@H]3O.Cl (stereo partly drawn) [form B, 3-beta-amino-17-methylene-androstane-6-alpha,7-beta-diol hydrochloride]
relative humidity range in which the crystalline form is stable ([2]; crystalline powder, hydrochloride): above 50 % RH

C=C1CCC2C3C(CC[C@]12C)[C@@]1(C)CC[C@H](N)CC1[C@@H](O)[C@@H]3O.Cl (stereo partly drawn) [form C, 3-beta-amino-17-methylene-androstane-6-alpha,7-beta-diol hydrochloride]
temperature above which the form turns into anhydride D by heating ([3]; conversion of mono-hydrate to anhydrous form D): above 60 °C
